Measured values as given in the Kinase Knowledgebase extract (Sharma et al. 2016).
Where “and” joins values, the source holds several entries; their conditions need not be identical. Equal values may be shown once.

How the values were obtained:
[1] = target: PIK3CG (human) (UniProt P48736); assay: Enzyme Assay
[2] = target: PIK3CB (Human) (UniProt P42338); assay: Enzyme Assay
[3] = target: PIK3CD (Human) (UniProt O00329); assay: Enzyme Assay
[4] = target: PIK3CA (human) (UniProt P42336); assay: Enzyme Assay
[5] = target: PIK3CD (Human) (UniProt O00329); assay: Cell-Based Assay; conditions: raji

PIK3CG (human), sequence (P48736 whole entry, looked up): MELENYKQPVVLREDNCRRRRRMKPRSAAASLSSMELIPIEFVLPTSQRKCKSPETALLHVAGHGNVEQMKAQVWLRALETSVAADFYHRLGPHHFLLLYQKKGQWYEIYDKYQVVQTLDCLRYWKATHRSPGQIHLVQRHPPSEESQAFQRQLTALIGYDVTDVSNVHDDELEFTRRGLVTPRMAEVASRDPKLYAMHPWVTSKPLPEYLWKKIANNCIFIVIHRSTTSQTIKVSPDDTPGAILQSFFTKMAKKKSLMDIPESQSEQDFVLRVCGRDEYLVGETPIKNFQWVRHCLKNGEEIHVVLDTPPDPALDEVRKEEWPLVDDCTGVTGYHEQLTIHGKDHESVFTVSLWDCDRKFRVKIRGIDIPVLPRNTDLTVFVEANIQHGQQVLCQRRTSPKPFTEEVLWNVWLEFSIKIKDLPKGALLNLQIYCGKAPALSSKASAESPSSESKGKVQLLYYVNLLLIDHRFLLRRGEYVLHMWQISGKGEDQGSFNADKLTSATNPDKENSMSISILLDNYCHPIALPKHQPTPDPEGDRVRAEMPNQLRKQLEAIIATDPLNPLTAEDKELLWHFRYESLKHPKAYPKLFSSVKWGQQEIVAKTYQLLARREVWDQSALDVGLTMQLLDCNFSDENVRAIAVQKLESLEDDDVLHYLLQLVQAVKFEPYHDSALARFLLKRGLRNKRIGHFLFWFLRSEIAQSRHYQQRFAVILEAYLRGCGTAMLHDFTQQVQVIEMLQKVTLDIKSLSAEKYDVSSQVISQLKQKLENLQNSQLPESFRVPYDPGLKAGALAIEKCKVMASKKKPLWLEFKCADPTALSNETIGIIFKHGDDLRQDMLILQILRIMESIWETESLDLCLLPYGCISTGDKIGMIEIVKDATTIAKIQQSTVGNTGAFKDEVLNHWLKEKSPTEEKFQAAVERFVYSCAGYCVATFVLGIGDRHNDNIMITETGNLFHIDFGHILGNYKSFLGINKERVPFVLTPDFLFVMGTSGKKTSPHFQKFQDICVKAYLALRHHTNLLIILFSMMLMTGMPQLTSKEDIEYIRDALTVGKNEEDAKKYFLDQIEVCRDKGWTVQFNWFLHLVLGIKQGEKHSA
PIK3CD (Human), sequence (O00329 whole entry, looked up): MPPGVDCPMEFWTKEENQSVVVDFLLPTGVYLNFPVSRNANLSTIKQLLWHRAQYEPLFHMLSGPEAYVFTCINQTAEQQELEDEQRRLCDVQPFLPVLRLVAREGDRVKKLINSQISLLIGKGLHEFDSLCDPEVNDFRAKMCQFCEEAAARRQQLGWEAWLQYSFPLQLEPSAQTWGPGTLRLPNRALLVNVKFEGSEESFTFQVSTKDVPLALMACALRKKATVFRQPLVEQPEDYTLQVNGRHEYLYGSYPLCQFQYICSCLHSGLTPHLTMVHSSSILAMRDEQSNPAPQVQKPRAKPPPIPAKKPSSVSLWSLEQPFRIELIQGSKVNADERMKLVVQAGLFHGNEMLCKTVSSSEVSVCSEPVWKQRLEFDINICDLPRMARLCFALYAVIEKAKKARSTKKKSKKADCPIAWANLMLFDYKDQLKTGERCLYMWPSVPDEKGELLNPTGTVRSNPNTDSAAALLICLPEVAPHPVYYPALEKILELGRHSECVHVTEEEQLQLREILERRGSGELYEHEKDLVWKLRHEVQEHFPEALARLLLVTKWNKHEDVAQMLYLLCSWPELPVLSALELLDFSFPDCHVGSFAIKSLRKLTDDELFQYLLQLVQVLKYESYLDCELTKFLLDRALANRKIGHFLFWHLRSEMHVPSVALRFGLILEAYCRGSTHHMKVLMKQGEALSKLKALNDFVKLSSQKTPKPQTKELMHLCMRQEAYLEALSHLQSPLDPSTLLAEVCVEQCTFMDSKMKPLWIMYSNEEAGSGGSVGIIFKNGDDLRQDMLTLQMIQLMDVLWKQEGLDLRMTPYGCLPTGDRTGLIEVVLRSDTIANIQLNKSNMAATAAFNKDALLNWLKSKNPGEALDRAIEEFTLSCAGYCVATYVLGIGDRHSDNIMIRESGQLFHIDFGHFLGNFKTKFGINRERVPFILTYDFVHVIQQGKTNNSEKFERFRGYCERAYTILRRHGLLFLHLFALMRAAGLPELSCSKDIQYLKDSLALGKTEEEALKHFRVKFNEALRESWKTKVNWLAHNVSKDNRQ
PIK3CA (human), sequence (P42336 whole entry, looked up): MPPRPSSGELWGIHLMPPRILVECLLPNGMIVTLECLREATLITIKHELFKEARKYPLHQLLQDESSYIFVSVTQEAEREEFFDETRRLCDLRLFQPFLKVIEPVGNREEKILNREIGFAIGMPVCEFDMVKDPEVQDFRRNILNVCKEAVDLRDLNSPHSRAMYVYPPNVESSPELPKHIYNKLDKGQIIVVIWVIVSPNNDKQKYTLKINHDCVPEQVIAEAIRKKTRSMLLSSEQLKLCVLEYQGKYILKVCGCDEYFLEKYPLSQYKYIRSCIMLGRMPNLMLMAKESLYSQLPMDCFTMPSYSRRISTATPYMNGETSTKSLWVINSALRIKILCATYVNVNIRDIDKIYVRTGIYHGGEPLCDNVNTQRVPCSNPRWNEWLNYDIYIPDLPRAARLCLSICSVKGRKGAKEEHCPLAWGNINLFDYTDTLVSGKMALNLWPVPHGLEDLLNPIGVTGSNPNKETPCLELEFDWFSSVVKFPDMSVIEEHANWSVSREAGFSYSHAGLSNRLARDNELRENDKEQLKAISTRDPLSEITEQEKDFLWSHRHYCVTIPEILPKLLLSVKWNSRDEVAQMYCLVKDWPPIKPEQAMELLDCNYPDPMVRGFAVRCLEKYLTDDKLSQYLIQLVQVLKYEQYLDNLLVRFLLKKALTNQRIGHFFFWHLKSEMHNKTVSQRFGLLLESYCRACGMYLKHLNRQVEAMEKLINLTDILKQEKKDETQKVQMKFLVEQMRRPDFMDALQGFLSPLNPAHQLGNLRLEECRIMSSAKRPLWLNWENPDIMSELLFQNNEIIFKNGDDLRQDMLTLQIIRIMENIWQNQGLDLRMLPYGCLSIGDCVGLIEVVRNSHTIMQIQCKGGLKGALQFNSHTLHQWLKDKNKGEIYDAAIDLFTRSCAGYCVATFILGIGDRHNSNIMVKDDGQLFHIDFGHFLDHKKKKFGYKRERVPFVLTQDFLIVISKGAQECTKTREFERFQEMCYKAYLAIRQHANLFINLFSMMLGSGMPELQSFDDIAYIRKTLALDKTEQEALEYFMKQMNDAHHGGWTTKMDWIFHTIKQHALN
PIK3CB (Human), sequence (P42338 whole entry, looked up): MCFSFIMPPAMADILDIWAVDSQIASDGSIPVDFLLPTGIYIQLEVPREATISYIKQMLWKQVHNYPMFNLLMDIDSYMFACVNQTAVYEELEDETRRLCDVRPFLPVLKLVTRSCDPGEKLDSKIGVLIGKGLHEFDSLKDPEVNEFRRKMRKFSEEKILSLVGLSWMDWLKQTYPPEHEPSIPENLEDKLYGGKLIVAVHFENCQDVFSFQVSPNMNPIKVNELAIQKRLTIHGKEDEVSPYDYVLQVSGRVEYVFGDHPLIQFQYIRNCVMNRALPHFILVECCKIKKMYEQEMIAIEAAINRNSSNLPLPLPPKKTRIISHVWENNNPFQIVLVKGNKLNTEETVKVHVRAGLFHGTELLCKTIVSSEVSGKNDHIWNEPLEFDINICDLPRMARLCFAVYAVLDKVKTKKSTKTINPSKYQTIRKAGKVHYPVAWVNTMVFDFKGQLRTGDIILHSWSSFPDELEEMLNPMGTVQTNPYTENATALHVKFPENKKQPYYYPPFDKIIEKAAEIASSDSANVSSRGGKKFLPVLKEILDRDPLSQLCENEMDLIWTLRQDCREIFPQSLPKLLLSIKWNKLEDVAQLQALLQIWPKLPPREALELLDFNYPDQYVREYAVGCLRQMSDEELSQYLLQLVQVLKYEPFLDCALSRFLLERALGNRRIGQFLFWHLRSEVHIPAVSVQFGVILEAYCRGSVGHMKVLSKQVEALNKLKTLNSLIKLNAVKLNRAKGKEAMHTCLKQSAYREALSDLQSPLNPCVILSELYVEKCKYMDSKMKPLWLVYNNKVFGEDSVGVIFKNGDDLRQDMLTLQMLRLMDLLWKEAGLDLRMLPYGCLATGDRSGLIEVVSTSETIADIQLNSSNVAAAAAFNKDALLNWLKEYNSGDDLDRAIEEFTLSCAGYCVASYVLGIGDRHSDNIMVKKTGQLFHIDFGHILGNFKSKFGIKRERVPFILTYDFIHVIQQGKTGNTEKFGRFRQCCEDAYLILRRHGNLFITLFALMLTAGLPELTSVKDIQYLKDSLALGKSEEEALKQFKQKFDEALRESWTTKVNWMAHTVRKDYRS

| IC50 [1] [µM] | IC50 [2] | IC50 [3] | IC50 [4] [µM] | IC50 [5] [µM] | Structure (SMILES) |
| --- | --- | --- | --- | --- | --- |
| ≥ 10 | ≥ 10 µM | ≥ 10 µM | ≥ 10 | – | C[C@H](NC(=O)c1c(N)nn2cccnc12)c1cc2cccc(NC3CCCCC3)c2c(=O)n1-c1ccccc1 |
| < 0.1 | ≥ 10 µM | 0.1 to 1 µM | ≥ 10 | < 0.1 | C[C@H](NC(=O)c1c(N)nn2cccnc12)c1cc2cccc(-c3ccc(=O)n(C)c3)c2c(=O)n1-c1ccccc1 |
| < 0.1 | 0.1 to 1 µM | 0.1 to 1 µM | 0.1 to 1 | < 0.1 | C#Cc1cccc2cc([C@H](C)NC(=O)c3c(N)nn4cccnc34)n(-c3ccccc3)c(=O)c12 |
| ≥ 10 | ≥ 10 µM | ≥ 10 µM | ≥ 10 | – | COc1cccc(-c2cnc(N)c(C(=O)N[C@@H](C)c3cc4cccc(Cl)c4c(=O)n3-c3ccccc3)n2)c1 |
| ≥ 10 | ≥ 10 µM | ≥ 10 µM | ≥ 10 | – | C[C@H](NC(=O)c1c(N)nn2cccnc12)c1nn2ccc(Cl)c2c(=O)n1-c1ccccc1 |
| ≥ 10 | ≥ 10 µM | ≥ 10 µM | ≥ 10 | – | CC(C)Nc1cccc2cc([C@H](C)NC(=O)c3c(N)nn4cccnc34)n(-c3ccccc3)c(=O)c12 |
| < 0.1 | < 0.1 µM | < 0.1 µM | < 0.1 | – | C[C@H](NC(=O)c1nc(-c2cncc(NS(C)(=O)=O)c2)cnc1N)c1cc2cccc(Cl)c2c(=O)n1C1CC1 |
| – | ≥ 10 µM | 0.1 to 1 µM | ≥ 10 | < 0.1 | C[C@H](NC(=O)c1nccnc1N)c1cc2cccc(-c3cc[nH]n3)c2c(=O)n1-c1ccccc1 |
| 0.1 to 1 | 0.1 to 1 µM | 0.1 to 1 µM | ≥ 10 | < 0.1 | C[C@H](NC(=O)c1nccnc1N)c1cc2cccc(Cl)c2c(=O)n1-c1ccc(F)cc1 |
| < 0.1 | 0.1 to 1 µM | 0.1 to 1 µM | 0.1 to 1 | < 0.1 | C[C@H](NC(=O)c1c(N)nn2cccnc12)c1cc2cccc(Cl)c2c(=O)n1CCN(C)S(C)(=O)=O |
| ≥ 10 | ≥ 10 µM | ≥ 10 µM | ≥ 10 | – | C[C@H](NC(=O)c1nc(-c2cccc(S(=O)(=O)N3CCOCC3)c2)cnc1N)c1cc2cccc(Cl)c2c(=O)n1-c1ccccc1 |
| – | ≥ 10 µM | ≥ 10 µM | ≥ 10 | 0.1 to 1 | COc1cc(-c2cccc3cc(C(C)NC(=O)c4c(N)nn5cccnc45)c(-c4ccccc4)nc23)ccn1 (stereo not given) |
| – | ≥ 10 µM | ≥ 10 µM | ≥ 10 | ≥ 10 | CC(C)Oc1ccc(-c2cnc(N)c(C(=O)N[C@@H](C)c3cc4cccc(Cl)c4c(=O)n3-c3ccccc3)n2)cc1 |
| ≥ 10 | ≥ 10 µM | ≥ 10 µM | ≥ 10 | – | C[C@H](NC(=O)c1c(N)nn2cccnc12)c1cc2cccc(N3CCN(C)CC3)c2c(=O)n1-c1ccccc1 |
| ≥ 10 | ≥ 10 µM | ≥ 10 µM | ≥ 10 | – | CC(C)c1ccnc2c(C(=O)N[C@@H](C)c3cc4cccc(Cl)c4c(=O)n3-c3ccccc3)c(N)nn12 |
| – | ≥ 10 µM and 0.1 to 1 µM | ≥ 10 µM and 0.1 to 1 µM | ≥ 10 | < 0.1 | C[C@H](NC(=O)c1c(N)nn2cccnc12)c1cc2cccc(F)c2c(=O)n1-c1ccccc1 |
| ≥ 10 | ≥ 10 µM | < 0.1 µM | ≥ 10 | – | CC(=O)N(C)Cc1cccc2cc([C@H](C)NC(=O)c3c(N)nn4cccnc34)n(-c3ccccc3)c(=O)c12 |
| ≥ 10 | ≥ 10 µM | ≥ 10 µM | ≥ 10 | – | C[C@H](NC(=O)c1c(N)nn2cccnc12)c1cc2cccc(/C=C/c3ccccc3)c2c(=O)n1-c1ccccc1 |
| < 0.1 | < 0.1 µM | 0.1 to 1 µM | 0.1 to 1 | 0.1 to 1 | C[C@H](NC(=O)c1nc(-c2cncc(NS(C)(=O)=O)c2)cnc1N)c1cc2cccc(Cl)c2c(=O)n1-c1ccccc1 |

| IC50 [1] [µM] | IC50 [2] | IC50 [3] | IC50 [4] [µM] | IC50 [5] [µM] | Structure (SMILES) |
| --- | --- | --- | --- | --- | --- |
| ≥ 10 | ≥ 10 µM | ≥ 10 µM | ≥ 10 | – | COc1cc(-c2csc3cc([C@H](C)NC(=O)c4c(N)nn5cccnc45)n(-c4ccccc4)c(=O)c23)ccn1 |
| < 0.1 | < 0.1 µM | 0.1 to 1 µM | 0.1 to 1 | < 0.1 | C[C@H](NC(=O)c1nc(-c2cccc(S(=O)(=O)NC3CC3)c2)cnc1N)c1cc2cccc(Cl)c2c(=O)n1C |
| ≥ 10 | ≥ 10 µM | ≥ 10 µM | ≥ 10 | – | C[C@H](NC(=O)c1cc(-c2cccc(NS(C)(=O)=O)c2)cnc1N)c1cc2cccc(Cl)c2c(=O)n1-c1ccccc1 |
| < 0.1 | 0.1 to 1 µM | 0.1 to 1 µM | 0.1 to 1 | < 0.1 | C[C@H](NC(=O)c1c(N)nn2cccnc12)c1cc2cccc(C#CCNC(=O)[C@@H]3CCC(=O)O3)c2c(=O)n1-c1ccccc1 |
| – | ≥ 10 µM | < 0.1 µM | ≥ 10 | < 0.1 | C[C@H](NC(=O)c1nccnc1N)c1cc2cccc(-c3cccnc3)c2c(=O)n1-c1ccccc1 |
| – | ≥ 10 µM | ≥ 10 µM | ≥ 10 | 0.1 to 1 | C[C@H](NC(=O)c1c(N)nn2cccnc12)c1cc2cccc(NCC(F)(F)F)c2c(=O)n1-c1ccccc1 |
| ≥ 10 | ≥ 10 µM | ≥ 10 µM | ≥ 10 | – | C[C@H](NC(=O)c1c(N)nn2cccnc12)c1nn2ccc(-c3cnn(C)c3)c2c(=O)n1-c1ccccc1 |
| 0.1 to 1 | < 0.1 µM | 0.1 to 1 µM | 0.1 to 1 | < 0.1 | C[C@H](NC(=O)c1c(N)nn2cccnc12)c1cc2cccc(Cl)c2c(=O)n1C1CC1 |
| ≥ 10 | ≥ 10 µM | ≥ 10 µM | ≥ 10 | – | CC(=O)Nc1ncc(-c2cccc(NS(C)(=O)=O)c2)nc1C(=O)N[C@@H](C)c1cc2cccc(Cl)c2c(=O)n1C |
| – | ≥ 10 µM | ≥ 10 µM | ≥ 10 | 0.1 to 1 | C[C@H](NC(=O)c1nc(-c2ccccc2)cnc1N)c1cc2cccc(Cl)c2c(=O)n1-c1ccccc1 |
| < 0.1 | < 0.1 µM | < 0.1 µM | < 0.1 | < 0.1 | C[C@H](NC(=O)c1c(N)nn2ccc(-c3cccc(S(C)(=O)=O)c3)nc12)c1cc2cccc(Cl)c2c(=O)n1-c1ccccc1 |
| ≥ 10 | ≥ 10 µM | ≥ 10 µM | ≥ 10 | – | Nc1nn2cccnc2c1C(=O)NCc1cc2cccc(Cl)c2c(=O)n1-c1ccccc1 |
| ≥ 10 | ≥ 10 µM | < 0.1 µM | ≥ 10 | – | C[C@H](NC(=O)c1c(N)nn2cccnc12)c1cc2cccc(CN(C)C)c2c(=O)n1-c1ccccc1 |
| – | ≥ 10 µM | ≥ 10 µM | ≥ 10 | ≥ 10 | CC(C)Oc1ccc(-c2cnc(N)c(C(=O)N[C@@H](C)c3cc4cccc(Cl)c4c(=O)n3-c3ccccc3)n2)cc1Cl |
| ≥ 10 | ≥ 10 µM | ≥ 10 µM | ≥ 10 | – | C[C@H](NC(=O)c1c(N)nn2c1NCCC2)c1cc2cccc(Cl)c2c(=O)n1-c1ccccc1 |
| 0.1 to 1 | 0.1 to 1 µM | 0.1 to 1 µM | ≥ 10 | < 0.1 | C[C@H](NC(=O)c1nc(C#N)cnc1N)c1cc2cccc(Cl)c2c(=O)n1-c1ccccc1 |
| < 0.1 | < 0.1 µM | 0.1 to 1 µM | 0.1 to 1 | < 0.1 | C[C@H](NC(=O)c1nc(-c2cccc(NS(C)(=O)=O)c2)cnc1N)c1cc2cccc(Cl)c2c(=O)n1C |
| < 0.1 | < 0.1 µM | 0.1 to 1 µM | < 0.1 | < 0.1 | C[C@H](NC(=O)c1nc(-c2cccc(S(C)(=O)=O)c2)c(N)nc1N)c1cc2cccc(Cl)c2c(=O)n1-c1ccccc1 |
